We go through one compound from US20190015551A1, “CONSTRUCT FOR PREVENTING IMMUNOLOGICAL REJECTION GENERATED WHEN USED IN TRANSPLANTS, AND METHOD FOR USING COLLAGEN IN A GEL STATE, IN THE FORM OF DRY LYOPHILISED SPONGY MOULDINGS AND 3D MATRICES” (ADG I+D SPA, priority 2015, published 2019).

The assay concerns bacterial colonies in pig tissue. Kind of assay: Microbiological control of pig tissue treated with disinfectants (CFU/plate). The format is cell-based. The source says: FIG. 3. It is shown the microbiological control of tissue for obtaining the collagen product, by means of the methodology described in the present application. It corresponds to CFU/plate in pig tissue treated with povidone-iodine or peracetic acid. […] Abbreviations: PY—povidone-iodine, PA—Peracetic Acid, CFU—colony forming units, CC—work bell control.
FIG. 4. It is shown results of microbiological control. The photographs of the culture plates show the initial growth of bacterial colonies at the beginning (time 0), and the decrease of CFU at 5 minutes, 30 minutes, 1 hour and 3 hours of exposure to the disinfectant; in the top panel povidone-iodine (PY) and in the lower panel peracetic acid (PA).
• i) Sterilization and freezing of the tissue: Pig's head cheeks skin from 175 to 190 days of age were used. Which was immersed for 3.5 hours in a commercial solution of povidone-iodine 10% (Brand: Centrovet) and brushed on both sides every 30 minutes, in a sterile environment, and rinsed with ultra-pure quality water. […] The disinfected tissue is bagged and sealed to freeze at −80° C. (±2.0° C.) in ultra freezer (Brand: Thermoline).

As for `CC(=O)OO` [PA, peracetic acid], under “3 hours of exposure to the disinfectant”, the “formation of bacterial colonies on culture plates” value was “the presence of a colony still persists”. Besides, the “UCF/plate in pig tissue treated with PY or PA” value is, setting by setting: (exposition time 0 min) 132 UCF/plate; (exposition time 5 min) 2 UCF/plate; (exposition time 30 min) 3 UCF/plate; (exposition time 1 hour) 7 UCF/plate; (exposition time 3 hours) 1 UCF/plate.
